Measurements from article PMC4988493 (Nature, 2015).

Target: UbiX (Pseudomonas aeruginosa, UniProt Q9HX08)
Test: crystal structure
Type: binding
Conditions: complex with DMAP

Chain of UbiX (Q9HX08 whole entry): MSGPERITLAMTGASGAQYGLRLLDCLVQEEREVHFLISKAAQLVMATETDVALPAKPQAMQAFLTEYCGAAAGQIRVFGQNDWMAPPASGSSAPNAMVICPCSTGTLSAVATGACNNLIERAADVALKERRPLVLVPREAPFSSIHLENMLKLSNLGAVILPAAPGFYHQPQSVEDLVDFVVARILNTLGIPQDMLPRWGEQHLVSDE

Question: `Cc1cc2nc3c(=O)[nH]c(=O)nc-3n(C[C@H](O)[C@H](O)[C@H](O)COP(=O)(O)O)c2cc1C` [FMN] was tested. Which crystal structure did it give?
Answer: The crystal structure was “crystal structure of P. aeruginosa UbiX in complex with oxidized FMN and DMAP”.
